Test results from ChEMBL document CHEMBL2074049, “Identity of the organic cation transporter OCT3 as the extraneuronal monoamine transporter (uptake2) and evidence for the expression of the transporter in the brain” (J Biol Chem, 1998).

Assays:
[1] = target: T1, Solute carrier family 22 member 3 (Rattus norvegicus, UniProt O88446); test: TP_TRANSPORTER: inhibition of MPP+ uptake (MPP+: 1 uM) in OCT3-expressing HRPE cells; assay type: functional, cell-based
T1 sequence (O88446 whole entry): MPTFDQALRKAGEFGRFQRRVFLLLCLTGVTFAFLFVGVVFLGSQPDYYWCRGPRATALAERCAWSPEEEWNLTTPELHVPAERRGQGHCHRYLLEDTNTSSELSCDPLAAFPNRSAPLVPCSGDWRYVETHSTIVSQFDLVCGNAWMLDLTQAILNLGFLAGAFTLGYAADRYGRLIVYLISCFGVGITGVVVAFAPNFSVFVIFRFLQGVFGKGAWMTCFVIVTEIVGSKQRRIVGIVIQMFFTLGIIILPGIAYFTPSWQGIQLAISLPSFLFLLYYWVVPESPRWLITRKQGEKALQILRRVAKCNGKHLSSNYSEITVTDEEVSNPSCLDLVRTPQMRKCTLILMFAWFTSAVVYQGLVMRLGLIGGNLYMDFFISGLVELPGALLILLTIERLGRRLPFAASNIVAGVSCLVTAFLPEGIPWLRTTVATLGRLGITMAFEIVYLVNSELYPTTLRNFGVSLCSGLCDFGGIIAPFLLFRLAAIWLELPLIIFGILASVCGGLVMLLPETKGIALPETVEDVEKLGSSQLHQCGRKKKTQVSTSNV

[2] = target: T2, Solute carrier family 22 member 2 (Rattus norvegicus, UniProt Q9R0W2); test: TP_TRANSPORTER: inhibition of TEA uptake (TEA: 20 uM) in OCT2-expressing HRPE cells; assay type: functional, cell-based
T2 sequence (Q9R0W2 whole entry): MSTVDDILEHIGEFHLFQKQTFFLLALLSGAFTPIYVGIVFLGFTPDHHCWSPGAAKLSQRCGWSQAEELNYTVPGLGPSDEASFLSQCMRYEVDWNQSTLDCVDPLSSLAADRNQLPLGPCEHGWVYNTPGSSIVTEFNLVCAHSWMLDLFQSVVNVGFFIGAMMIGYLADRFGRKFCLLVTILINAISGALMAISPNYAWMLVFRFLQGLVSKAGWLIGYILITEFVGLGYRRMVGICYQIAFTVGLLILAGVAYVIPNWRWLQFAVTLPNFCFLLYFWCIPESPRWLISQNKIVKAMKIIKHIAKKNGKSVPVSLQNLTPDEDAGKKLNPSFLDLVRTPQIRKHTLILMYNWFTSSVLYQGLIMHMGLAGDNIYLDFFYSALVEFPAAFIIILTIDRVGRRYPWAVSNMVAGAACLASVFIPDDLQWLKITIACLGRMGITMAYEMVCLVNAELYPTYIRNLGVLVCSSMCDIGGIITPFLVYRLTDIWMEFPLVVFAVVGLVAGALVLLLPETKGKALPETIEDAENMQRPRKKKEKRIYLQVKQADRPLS

[3] = target: T1, Solute carrier family 22 member 3; test: TP_TRANSPORTER: inhibition of TEA uptake (TEA: 20 uM) in OCT3-expressing HRPE cells; assay type: functional, cell-based
[4] = target: T3, Solute carrier family 22 member 1 (Rattus norvegicus, UniProt Q63089); test: TP_TRANSPORTER: inhibition of TEA uptake (TEA: 20 uM, Corticosterone: 100 uM) in OCT1-expressing HRPE cells; assay type: functional, cell-based; conditions: human
T3 sequence (Q63089 whole entry): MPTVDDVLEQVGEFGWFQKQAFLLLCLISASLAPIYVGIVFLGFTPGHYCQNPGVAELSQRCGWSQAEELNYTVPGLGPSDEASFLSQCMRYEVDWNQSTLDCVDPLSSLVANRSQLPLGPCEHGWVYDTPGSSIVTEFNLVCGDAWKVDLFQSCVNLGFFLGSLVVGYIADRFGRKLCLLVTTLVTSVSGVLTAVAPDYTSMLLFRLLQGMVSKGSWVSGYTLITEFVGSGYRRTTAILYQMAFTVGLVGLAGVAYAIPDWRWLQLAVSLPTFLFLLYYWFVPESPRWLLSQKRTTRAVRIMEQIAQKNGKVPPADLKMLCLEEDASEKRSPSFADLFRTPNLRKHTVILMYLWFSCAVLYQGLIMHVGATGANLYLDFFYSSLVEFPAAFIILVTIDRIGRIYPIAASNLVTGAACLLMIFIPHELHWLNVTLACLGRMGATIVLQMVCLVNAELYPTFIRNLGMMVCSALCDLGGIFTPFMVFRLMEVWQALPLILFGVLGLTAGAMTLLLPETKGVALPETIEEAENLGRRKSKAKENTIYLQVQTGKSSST

[5] = target: T1, Solute carrier family 22 member 3; test: TP_TRANSPORTER: inhibition of Dopamine uptake (Dopamine: 0.15 uM, Cocaine: 100 uM) in OCT3-expressing HRPE cells; assay type: functional, cell-based; conditions: human
[6] = target: T3, Solute carrier family 22 member 1; test: TP_TRANSPORTER: inhibition of TEA uptake (TEA: 20 uM, beta-Estradiol: 100 uM) in OCT1-expressing HRPE cells; assay type: functional, cell-based; conditions: human
[7] = target: T3, Solute carrier family 22 member 1; test: TP_TRANSPORTER: inhibition of TEA uptake (TEA: 20 uM, Deoxycorticosterone: 100 uM) in OCT1-expressing HRPE cells; assay type: functional, cell-based; conditions: human
[8] = target: T3, Solute carrier family 22 member 1; test: TP_TRANSPORTER: inhibition of TEA uptake in OCT1-expressing HRPE cells; assay type: functional, cell-based; conditions: human
[9] = target: T3, Solute carrier family 22 member 1; test: TP_TRANSPORTER: inhibition of TEA uptake (TEA: 20 uM, Testosterone: 100 uM) in OCT1-expressing HRPE cells; assay type: functional, cell-based; conditions: human
[10] = target: T1, Solute carrier family 22 member 3; test: (§1) TP_TRANSPORTER: uptake in OCT3-expressing HRPE cells; assay type: functional, cell-based; conditions: human
[11] = substrate: C[n+]1ccc(-c2ccccc2)cc1; test: as §1; assay type: functional, cell-based
[12] = substrate: C[n+]1ccc(-c2ccccc2)cc1; test: TP_TRANSPORTER: uptake (electrogenesis, -50mV) in Xenopus laevis oocytes; assay type: functional, cell-based, Oocyte

Work on `CC(N)Cc1ccccc1` (stereo unspecified) [AMPHETAMINE] yielded an IC50 [1] of 42 µM.

`NC[C@H](O)c1ccc(O)c(O)c1` [NOREPINEPHRINE] gave an IC50 [2] of 11000 µM and an IC50 [3] of 434 µM.

Work on `NCCc1c[nH]c2ccc(O)cc12` [SEROTONIN] yielded an IC50 [1] of 97 µM.

`C[C@]12C[C@H](O)[C@H]3[C@@H](CCC4=CC(=O)CC[C@@]43C)[C@@H]1CC[C@@H]2C(=O)CO` [CORTICOSTERONE] was tested, and the IC50 [2] was 4.2 µM, the Activity [4] was “is not an inhibitor [-]” and the Activity [5] was “inhibitor [(at a rough estimate) 5 % of control]”. The IC50 [3] was 4.9 µM.

In the case of `CNCCCN1c2ccccc2CCc2ccccc21` [DESIPRAMINE], the IC50 [1] is reported as 68 µM.

For `CN[C@@H](C)Cc1ccccc1` [METHAMPHETAMINE], the IC50 [1] was 248 µM.

`C[C@]12CC[C@@H]3c4ccc(O)cc4CC[C@H]3[C@@H]1CC[C@@H]2O` [ESTRADIOL] was tested, and the IC50 [2] was 84.8 µM, the Activity [6] was “is not an inhibitor [-]” and the IC50 [3] was 1.1 µM.

With `C[C@]12CC[C@H]3[C@@H](CCC4=CC(=O)CC[C@@]43C)[C@@H]1CC[C@@H]2C(=O)CO` [DESOXYCORTICOSTERONE] the IC50 [2] was 1.9 µM, the Activity [7] was “is not an inhibitor [-]” and the IC50 [3] was 8.4 µM.

`CC(=O)[C@H]1CC[C@H]2[C@@H]3CCC4=CC(=O)CC[C@]4(C)[C@H]3CC[C@]12C` [PROGESTERONE] was tested, and the IC50 [2] was 1.6 µM, the Activity [8] was “inhibitor [+]” and the IC50 [3] was 10.5 µM.

With `C[C@]12CC[C@H]3[C@@H](CCC4=CC(=O)CC[C@@]43C)[C@@H]1CC[C@@H]2O` [TESTOSTERONE] the Activity [9] was “is not an inhibitor [-]”.

With `NCCc1ccc(O)c(O)c1` [DOPAMINE] the IC50 [2] was 2300 µM, the IC50 [1] was 62 µM and the Activity [10] was “substrate [+]”. For the same molecule, the IC50 [3] was 384 µM.

B1: Solute carrier family 22 member 3 (Rattus norvegicus) (protein)
chain: MPTFDQALRKAGEFGRFQRRVFLLLCLTGVTFAFLFVGVVFLGSQPDYYWCRGPRATALAERCAWSPEEEWNLTTPELHVPAERRGQGHCHRYLLEDTNTSSELSCDPLAAFPNRSAPLVPCSGDWRYVETHSTIVSQFDLVCGNAWMLDLTQAILNLGFLAGAFTLGYAADRYGRLIVYLISCFGVGITGVVVAFAPNFSVFVIFRFLQGVFGKGAWMTCFVIVTEIVGSKQRRIVGIVIQMFFTLGIIILPGIAYFTPSWQGIQLAISLPSFLFLLYYWVVPESPRWLITRKQGEKALQILRRVAKCNGKHLSSNYSEITVTDEEVSNPSCLDLVRTPQMRKCTLILMFAWFTSAVVYQGLVMRLGLIGGNLYMDFFISGLVELPGALLILLTIERLGRRLPFAASNIVAGVSCLVTAFLPEGIPWLRTTVATLGRLGITMAFEIVYLVNSELYPTTLRNFGVSLCSGLCDFGGIIAPFLLFRLAAIWLELPLIIFGILASVCGGLVMLLPETKGIALPETVEDVEKLGSSQLHQCGRKKKTQVSTSNV
For B1, the Km [11] was 91 µM and the Km [12] was 24 µM.
